Laboratory results: patent US6083974A, “Benzothiophenecarboxamide derivatives and PGD2 antagonists comprising them” (Shionogi & Co., Ltd., priority 1996, dated 2000)

Experiments:
PGD2 receptor [1] = biological target: T1, PGD2 receptor (Homo sapiens, UniProt Q13258); assay: Binding to PGD2 Receptor (inhibition of [3H]PGD2 binding to human platelet membrane fraction); settings: human platelet membrane fraction (0.1 mg), 5 nM [3H]PGD2, pH 7.4, 4° C., 90 min
T1 construct: A suspension adjusted to contain platelet at a final concentration of; endogenous in cells; host or cells: washed human platelets from peripheral blood of a healthy volunteer
T1 sequence (Q13258 1-359): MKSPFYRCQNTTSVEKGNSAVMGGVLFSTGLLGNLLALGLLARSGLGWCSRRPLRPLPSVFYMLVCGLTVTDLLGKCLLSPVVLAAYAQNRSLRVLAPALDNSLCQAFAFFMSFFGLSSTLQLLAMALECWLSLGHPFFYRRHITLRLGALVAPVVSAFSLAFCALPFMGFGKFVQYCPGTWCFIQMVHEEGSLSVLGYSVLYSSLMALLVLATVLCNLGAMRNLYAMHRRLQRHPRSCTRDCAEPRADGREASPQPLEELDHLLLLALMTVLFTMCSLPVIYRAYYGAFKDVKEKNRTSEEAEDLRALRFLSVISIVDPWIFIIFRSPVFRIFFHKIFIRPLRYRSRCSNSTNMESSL
Description: (1) Preparation of Human Platelet Membrane Fraction
Blood sample was obtained using a plastic syringe containing 3.8% sodium citrate from the vein of healthy volunteers (adult male and female), put into a plastic test tube and mixed gently by rotation. The sample was then centrifuged at 1800 rpm, 10 min at room temperature, and the supernatant containing PRP (platelet-rich plasma) was collected. The PRP was recentrifuged at2300 rpm, 22 min at room temperature to obtain platelets. The platelets were homogenized using a homogenizer (Ultra-Turrax) followed by centrifugation 3 times at 20,000 rpm, 10 min at 4° C. to obtain a platelet membrane fraction. After protein determination, the membrane fraction was adjusted to 2 mg/ml and preserved in a refrigerator at -80° C. until use.
(2) Binding to PGD2 Receptor
To a binding-reaction solution (50 mM Tris/HCl, pH 7.4, 5 mM MgCl2) (0.2 ml) were added to the human platelet membrane fraction (0.1 mg) and 5 nM [^3 H]PGD2 (115 Ci/mmol), and reacted at 4° C. for 90 min. After the reaction completed, the reaction mixture was filtered through a glass fiber filter paper, washed several times with cooled saline, and measured the radioactivity retained on the filter paper. The specific binding was calculated by subtracting the non-specific binding (the binding in the presence of 10 μM PGD2) from the total binding. The inhibitory activity of each compound was expressed as the concentration required for 50% inhibition (IC50), which was determined by depicting a substitution curve by plotting the binding ratio (%) in the presence of each compound, where the binding ratio in the absence of a test compound is 100%.

PGD2 receptor [2] = biological target: T1, PGD2 receptor; assay: Antagonistic activity against PGD2 receptor using human platelet (inhibition of PGD2-induced cAMP increase); assay type: cell-based; settings: human washed platelets, 0.1 μM PGD2, 3-isobutyl-1-methylxanthine 0.5 mM, 37° C.; read-out: IC50, inhibition of cAMP increased by PGD2
Description: Evaluation of Antagonistic Activity Against PGD2 Receptor Using Human Platelet
Peripheral blood was obtained from a healthy volunteer using a syringe in which 1/9 volume of citric acid/dextrose solution has been previously added. The syringe was subjected to centrifugation at 180 g for 10 min to obtain the supernatant (PRP:platelet rich plasma). the resultant PRP was washed 3 times with a washing buffer and the number of platelet was counted with a micro cell counter. A suspension adjusted to contain platelet at a final concentration of 5×10^8 /ml was warmed at 37° C., and then subjected to the pre-treatment with 3-isobutyl-1-methylxanthine (0.5 mM) for 5 min. To the suspension was added a test compound diluted at various concentration. Ten-minute later, the reaction was induced by the addition of 0.1 μM PGD2 and , 2-minute later, stopped by the addition of hydrochloric acid. The platelet was destroyed with an ultrasonic homogenizer. After centrifugation, the cAMP in the supernatant was determined by radioummunoassay. PGD2 receptor antagonism of a drug was evaluated as follows. The inhibition rate regarding cAMP increased by the addition of PGD2 was determined at individual concentration, and then the concentration of the drug required for 50% inhibition (IC50) was calculated.

eosinophils = assay: Infiltration of eosinophils in the nasal cavity by an antigen challenge; assay type: in vivo; settings: guinea pig, oral 1, 3 and 10 mg/kg, 1 hr before antigen challenge; marked columns not given
Description: Activity on Infiltration of Eosionophils in the Nasal Cavity by an Antigen Challenge
To a Hartley male guinea pig was injected intraperitoneally cyclophosphamide (30 mg/kg), after 2 day 1 ml of suspension containing 1 mg of ovalbumin (OVA) and 100 mg of aluminum hydroxide was injected intraperitoneally. After 3 weeks, 1 ml of mixture of OVA (10 μg) and aluminum hydroxide (100 mg) was intraperitoneally injected as additional immunization to sensitize systemically. After the lapse of 3 weeks, local sensitization, each 10 μl of 1% OVA solution was dripped in both nasal cavities four times at 2-4 day intervals. After 5-7 days from the final sensitization, nasal antigen challenge was performed by dripping 10 μl of 1% OVA solution to the guinea pigs in the both nasal cavity. Five hours after nasal challenge, the guinea pigs were exsanguinated under the anesthetization. The nasal airways were washed by infusing 10 ml of saline, and the washings were collected. The washing were centrifuged, the cell pellets were resuspended in 100 μl of saline, and the total cells were counted by the Turk stain. Then smear samples were prepared, and the cells were classified after the May-Grunwald-Giemsa stain. The eosinophil number was determined by multiplying the rate of eosinophils with the total cells. […]

Hartley male guinea pig = assay: Nasal blocking model (intranasal pressure after OVA antigen exposure); assay type: in vivo; settings: oral 60 min before 3% OVA antigen exposure, dose not given
Description: Experiment Using Nasal Blocking Model
The method used for measuring the intranasal pressure for evaluating the anti-nasal blockage using guinea pigs is described below.
A 1% ovalbumin (OVA) solution was treated with an ultrasonic nebulizer to obtain an aerosol. Hartley male guinea pig was sensitized by inhaling twice the aerosol for 10 min at one-week interval. Seven-day after the sensitization, the guinea pig was exposed to an antigen to initiate the reaction. Briefly, the trachea was incised under the anesthesia with pentobarbital (30 mg/kg, i.p.) and cannulas were inserted at the pulmonary side was connected with an artificial respirator that provides 4 ml air 60 times/min. After arresting the spontaneous respiration of the guinea pig with Gallamin (2 mg/kg, i.v.), air was supplied to the snout side with an artificial respirator at the frequency of 70 times/min, and the flow rate of 4 ml air/time, and the atmospheric pressure required for the aeration was measured by the use of a transducer fitted at the branch. The measurement was used as a parameter of the nasal cavity resistance. The exposure of an antigen was carried out by generating aerosol of 3% OVA solution for 3 min between the respirator and the nasal cavity cannula. The test drug was administered orally 60 min before the antigen exposure. […]

Structure (SMILES) | IC50 (PGD2 receptor [1]) [nM] | IC50 (PGD2 receptor [2]) [nM] | inhibition of infiltration of eosinophils in the nasal cavity, significance versus vehicle (FIG. 1) (eosinophils) | Inhibitory Rate, intranasal pressure AUC for 30 min vs vehicle (Hartley male guinea pig) [%]
CC1(C)[C@H]2C[C@H](C/C=C\CCCC(=O)O)[C@@H](NC(=O)c3csc4ccc(Br)cc34)[C@@H]1C2 [IA-a-2] | 3.3 | – | – | –
CC1(C)[C@H]2C[C@H](C/C=C\CCCC(=O)O)[C@@H](NC(=O)c3csc4ccc(O)cc34)[C@@H]1C2 [IA-a-5] | 0.4 | 1.3 | significantly different from vehicle at p<0.01 | 96
CC1(C)[C@H]2C[C@H](C/C=C\CCCC(=O)O)[C@@H](NC(=O)c3csc4cc(O)ccc34)[C@@H]1C2 [IA-a-7] | 1.3 | 2.8 | – | –
CC(=O)Oc1ccc2scc(C(=O)N[C@@H]3[C@@H](C/C=C\CCCC(=O)O)C[C@H]4C[C@@H]3C4(C)C)c2c1 [IA-a-9] | 6.5 | 0.21 | – | –
CC1(C)[C@H]2C[C@H](C/C=C/CCCC(=O)O)[C@@H](NC(=O)c3csc4ccc(O)cc34)[C@@H]1C2 [IA-a-17] | – | 28 | – | –
CC1(C)[C@H]2C[C@@H](C/C=C\CCCC(=O)O)[C@@H](NC(=O)c3csc4ccc(O)cc34)[C@@H]1C2 [IA-c-1] | – | 55 | – | –
CC1(C)[C@H]2C[C@@H](C/C=C/CCCC(=O)O)[C@@H](NC(=O)c3csc4ccc(O)cc34)[C@@H]1C2 [IA-c-2] | – | 61 | – | –
CC1(C)[C@H]2C[C@H](NC(=O)c3csc4ccccc34)[C@@H](C/C=C\CCCC(=O)O)[C@@H]1C2 [IB-a'-1] | – | 41 | – | –
CC1(C)[C@H]2C[C@@H](NC(=O)c3csc4ccc(O)cc34)[C@H](C/C=C\CCCC(=O)O)[C@@H]1C2 [IB-b'-3] | – | 57 | – | –
